Test results from patent US5196513A, “Synthetic peptides derived from the beta-subunit of human thyroid stimulating hormone” (Mayo Foundation for Medical Education and Research, priority 1991, dated 1993).
Residues, ends and D or L forms follow the SMILES beside them.

Legend:
[1] = target: T1, TSH receptor on human thyroid membranes (Homo sapiens, UniProt P16473); test: Human thyroid membrane TSH radio-receptor assay (inhibition of 125I-bTSH binding); conditions: for EC50: concentration inhibiting 125I-bTSH binding to human thyroid membrane by 50%, mean ± se of at least 3 assays
T1 construct: Crude membrane preparations were prepared from the frozen tissue; from tissue; host or cells: human thyroid tissue (Graves' disease patients), crude 2000 x g membrane fraction
T1 sequence (P16473 21-764): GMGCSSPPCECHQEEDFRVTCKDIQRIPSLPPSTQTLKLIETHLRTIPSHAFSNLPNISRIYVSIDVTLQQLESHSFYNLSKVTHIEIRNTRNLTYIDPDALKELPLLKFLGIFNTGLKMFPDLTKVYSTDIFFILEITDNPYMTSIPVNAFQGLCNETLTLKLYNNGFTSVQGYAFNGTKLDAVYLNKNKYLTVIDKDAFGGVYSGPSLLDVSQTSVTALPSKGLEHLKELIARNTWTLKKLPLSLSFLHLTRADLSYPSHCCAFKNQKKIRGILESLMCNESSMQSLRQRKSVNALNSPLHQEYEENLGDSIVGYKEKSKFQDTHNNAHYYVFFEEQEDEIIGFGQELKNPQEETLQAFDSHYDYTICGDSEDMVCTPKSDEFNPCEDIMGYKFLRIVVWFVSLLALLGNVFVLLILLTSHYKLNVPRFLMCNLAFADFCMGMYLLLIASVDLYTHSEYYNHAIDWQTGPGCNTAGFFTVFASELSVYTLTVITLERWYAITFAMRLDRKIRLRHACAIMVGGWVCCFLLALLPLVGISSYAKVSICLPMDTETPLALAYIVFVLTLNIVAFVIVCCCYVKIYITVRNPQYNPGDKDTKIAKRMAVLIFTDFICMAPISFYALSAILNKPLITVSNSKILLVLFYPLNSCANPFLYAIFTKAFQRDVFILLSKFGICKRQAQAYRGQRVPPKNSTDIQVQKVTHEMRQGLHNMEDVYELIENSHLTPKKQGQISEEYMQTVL
Experimental: Thyroid tissue from patients with Graves' disease was obtained at surgery and promptly frozen and maintained at -70° C. Crude membrane preparations were prepared from the frozen tissue as previously described, Takahashi et al., J. Clin. Endocrinol. Metab., 47:870-876 (1978), the disclosure of which is incorporated by reference herein. Briefly, the tissue was homogenized with a Polytron homogenizer (Brinkmann Instruments,Westbury, N.Y.), and the 2000×g fraction was collected by centrifugation, washed, and resuspended in 40 mM Tris, 200 mM sucrose, pH 7.4. Membrane preparations were maintained at -70° C. until assay.
(§1) Highly purified bTSH (30 U/mg, supplied by Dr. J. G. Pierce, formerly of UCLA) was radio-iodinated (Na^125 I, Amersham, Chicago) by a lactoperoxidase technique to a specific activity averaging 40-50 μCi/μg as previously described, Takahashi et al., supra, then purified by Sephadex G-100 chromatography.
(§2) The TSH radio-receptor assay (RRA) utilized for the studies has been well described previously; see Takahashi et al., supra and Morris et al., Endocrinology, 123:456-462 (1988), the disclosure of which is incorporated by reference herein. Briefly, for either human or porcine thyroid RRA, the incubation mixture consisted of the following: 10 mg equivalents of wet weight (mg eq) crude thyroid membrane preparation, 0.124 ng [^125 I]iodo-bTSH (approximately 20,000 cpm), 0.2% Triton X-100, and the noted amounts of synthetic peptides or unlabeled bTSH in 0.5 ml 40 mM Tris, 0.1% BSA, pH 7.4. Bound label was separated from free after 2 hrs incubation at 25° C. by addition of a 1 ml 30% polyethylene glycol (PEG, Baker, Phillipsburg, N.J.) 6000 in 1M NaCl and centrifugation. The resulting pellet was counted in a gamma counter. Non-specific binding was determined by addition of a 100 mU/ml crude bTSH (Sigma, St. Louis).

[2] = target: T2, porcine TSH receptor (porcine thyroid membranes) (Sus scrofa, UniProt Q8SPP9); test: Porcine thyroid membrane TSH radio-receptor assay (inhibition of 125I-bTSH binding); conditions: concentration inhibiting 125I-bTSH binding to porcine thyroid membrane by 50%; mean ± se of at least 3 assays
T2 construct: Frozen porcine thyroid glands were purchased; tissue Pel-Freez Biologicals; host or cells: porcine thyroid glands, crude membrane preparation
T2 sequence (Q8SPP9 22-764): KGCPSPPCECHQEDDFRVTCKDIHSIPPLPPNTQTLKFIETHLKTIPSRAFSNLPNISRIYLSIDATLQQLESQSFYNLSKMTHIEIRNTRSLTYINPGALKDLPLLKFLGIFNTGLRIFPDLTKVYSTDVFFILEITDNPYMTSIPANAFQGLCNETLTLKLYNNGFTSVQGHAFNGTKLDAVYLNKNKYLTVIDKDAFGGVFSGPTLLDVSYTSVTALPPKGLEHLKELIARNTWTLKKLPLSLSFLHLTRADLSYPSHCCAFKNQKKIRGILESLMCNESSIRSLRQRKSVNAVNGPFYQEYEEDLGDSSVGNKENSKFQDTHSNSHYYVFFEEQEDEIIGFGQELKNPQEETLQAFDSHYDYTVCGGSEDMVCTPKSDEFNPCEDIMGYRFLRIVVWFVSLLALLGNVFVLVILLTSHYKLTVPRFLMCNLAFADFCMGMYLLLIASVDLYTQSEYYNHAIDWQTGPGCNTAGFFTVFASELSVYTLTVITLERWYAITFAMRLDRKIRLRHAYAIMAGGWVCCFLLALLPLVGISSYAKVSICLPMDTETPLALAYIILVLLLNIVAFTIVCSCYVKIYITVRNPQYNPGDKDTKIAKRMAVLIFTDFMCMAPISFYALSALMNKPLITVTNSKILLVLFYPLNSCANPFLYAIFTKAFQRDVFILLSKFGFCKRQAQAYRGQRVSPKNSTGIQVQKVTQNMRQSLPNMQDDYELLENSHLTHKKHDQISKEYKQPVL
From the text: Frozen porcine thyroid glands were purchased (Pel-Freez Biologicals, Rogers, Ak.) and prepared using the same procedures as for the human glands.
as §1, §2

FRTL5 cells = FRTL5 cells (Rattus norvegicus, UniProt P21463); test: TSab bioassay, inhibition of TSab-stimulated cAMP generation in FRTL5 cells; format: cell-based; conditions: for Serum samples in which TSab-stimulated cAMP was significantly inhibited (p<0.05) / samples tested: peptide 150 μg/ml; for Inhibition of TSab-stimulated cAMP generation (in words): peptide 50 and 150 μg/ml
FRTL5 cells, sequence (P21463 22-764): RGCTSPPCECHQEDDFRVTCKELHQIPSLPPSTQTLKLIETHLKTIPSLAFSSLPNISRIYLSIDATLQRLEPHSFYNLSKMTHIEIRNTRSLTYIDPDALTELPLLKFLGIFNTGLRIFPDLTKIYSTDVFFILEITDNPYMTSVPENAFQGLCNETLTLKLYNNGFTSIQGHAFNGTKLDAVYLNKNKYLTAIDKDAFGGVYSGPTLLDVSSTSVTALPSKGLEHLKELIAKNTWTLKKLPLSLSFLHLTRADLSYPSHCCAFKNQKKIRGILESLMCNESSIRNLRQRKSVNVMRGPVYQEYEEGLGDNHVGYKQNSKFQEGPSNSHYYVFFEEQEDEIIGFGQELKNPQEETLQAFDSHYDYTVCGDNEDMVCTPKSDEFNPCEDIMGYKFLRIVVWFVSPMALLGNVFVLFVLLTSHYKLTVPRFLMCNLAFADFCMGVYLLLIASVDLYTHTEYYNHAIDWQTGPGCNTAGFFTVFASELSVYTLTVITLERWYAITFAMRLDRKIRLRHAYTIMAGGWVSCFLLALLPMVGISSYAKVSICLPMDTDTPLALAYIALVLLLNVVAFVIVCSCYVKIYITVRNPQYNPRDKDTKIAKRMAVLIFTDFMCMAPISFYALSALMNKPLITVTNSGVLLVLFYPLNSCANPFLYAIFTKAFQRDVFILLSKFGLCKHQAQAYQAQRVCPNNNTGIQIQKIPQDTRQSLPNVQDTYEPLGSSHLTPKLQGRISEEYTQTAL
Experimental: FRTL5 cells were cultured in Hams F-12 medium supplemented with 5% calf serum and a preparation containing 6 hormones (6H), including 10 mU/ml bTSH (Sigma, St. Louis, Mo.), as previously described. Ambesi-Impiombato et al., Proc. Natl. Acad. Sci. U.S.A., 77:3455 (1980), the disclosure of which is incorporated by reference herein. The cells were enzymatically removed from flasks and plated in 24 well plates containing 6H at a density of 150,000 cells per well. After 4 days, the cells were washed and the media replaced with media containing insulin only (1H). All subsequent assays were performed on cells deprived of TSH for 5-7 days.
Serum samples from 15 patients with elevated TSab levels were selected from the clinical chemistry laboratory. The TSab values, expressed as an index, [formula] 63:707 (1988)]ranged from 10-20 with an average of 13.8±3.3. Normal serum has an index of less than 1.3.
The bioassay described by Kasagi et al., supra, with modifications as previously noted above, was used. The immunoglobulins were precipitated from 2 ml of TSab-containing serum with 6 ml of polyethylene glycol 6,000 (Baker; Phillipsburg, N.J.), centrifuged at 3,000×g for 20 minutes, and resuspended in 4 ml of NaCl-free HBSS with 0.5 mM IBMX and 0.5% BSA. The plated cells were washed with NaCl-free HBSS and the crude immunoglobulin extract, mixed with various concentrations of β-subunit peptides, was added in duplicate to the wells (total volume 200 μl/well). The cells were incubated for 2 hours at 37° C. and 5% CO2. The samples were then removed from the cells and a portion diluted 1:50 in NaOAc buffer, pH 6.2. A 25 μl aliquot of this was then used in a cAMP RIA as described above. The basal cAMP levels were determined for each plate of cells in the absence of immunoglobulin extract and β-peptides. A maximal cAMP level was attained by stimulating the cells with the immunoglobulin extract only. The percent increase in cAMP levels above basal was calculated as: [formula] as previously described (see Morris et al., supra). The percent inhibition of cAMP production by the β-subunit peptides was calculated as described above for TSH-stimulated cells, substituting pmol cAMP crude immunoglobulin for pmol cAMP TSH.
Inhibition of TSab activity was tested by comparing the replicates of cAMP levels generated in the presence of peptide to those generated by TSab alone using Student's T test for unpaired samples. Mean inhibition by the various doses of synthetic peptide for the patient group was tested by comparison with maximum cAMP response within each patient sample using the T test for paired samples.

Row | SMILES | EC50 [1] [µM] | EC50 [2] [µM] | Serum samples in which TSab-stimulated cAMP was significantly inhibited (p<0.05) / samples tested (FRTL5 cells) | Inhibition of TSab-stimulated cAMP generation (in words) (FRTL5 cells; listed as 71-85) | Inhibition of TSab-stimulated cAMP generation (in words) (FRTL5 cells) | Inhibition of TSH binding to human thyroid membrane (in words) ([1]; human thyroid membrane RRA)
1 | CC[C@H](C)[C@H](NC(=O)[C@@H](N)[C@@H](C)O)C(=O)N[C@@H](CC(N)=O)C(=O)N[C@H](C(=O)N[C@H](C(=O)N[C@H](C(=O)N[C@@H](CS)C(=O)N[C@@H](C)C(=O)NCC(=O)N[C@@H](Cc1ccc(O)cc1)C(=O)N[C@@H](CS)C(=O)N[C@@H](CCSC)C(=O)N[C@H](C(=O)N[C@@H](CCCNC(=N)N)C(=O)N[C@@H](CC(=O)O)C(N)=O)[C@@H](C)O)[C@@H](C)CC)[C@@H](C)O)[C@@H](C)O [β21-35] (H-TINTTICAGYCMTRD-NH2) | > 1000 | > 1000 |  |  |  | 
2 | CC(C)C[C@H](NC(=O)[C@H](C)NC(=O)[C@H](Cc1ccc(O)cc1)NC(=O)[C@H](CCCCN)NC(=O)[C@@H]1CCCN1C(=O)[C@H](CC(C)C)NC(=O)[C@@H](N)Cc1ccccc1)C(=O)N[C@@H](CO)C(=O)N[C@@H](CCC(N)=O)C(=O)N[C@@H](CC(=O)O)C(=O)N[C@H](C(=O)N[C@@H](CS)C(=O)N[C@H](C(=O)N[C@@H](Cc1ccc(O)cc1)C(=O)N[C@@H](CCCNC(=N)N)C(N)=O)[C@@H](C)O)C(C)C [β41-55] (H-FLPKYALSQDVCTYR-NH2) | 242 ± 58 | 216 ± 18 |  |  |  | 
3 | CC[C@H](C)[C@H](NC(=O)[C@H](CC(=O)O)NC(=O)[C@H](CCCNC(=N)N)NC(=O)[C@@H](NC(=O)[C@H](CCSC)NC(=O)[C@@H](N)CS)[C@@H](C)O)C(=O)N[C@@H](CC(N)=O)C(=O)NCC(=O)N[C@@H](CCCCN)C(=O)N[C@@H](CC(C)C)C(=O)N[C@@H](Cc1ccccc1)C(=O)N[C@@H](CC(C)C)C(=O)N1CCC[C@H]1C(=O)N[C@@H](CCCCN)C(=O)N[C@@H](Cc1ccc(O)cc1)C(N)=O [β31-45] (H-CMTRDINGKLFLPKY-NH2) | 186 ± 25 | 200 ± 36 |  |  |  | 

The next lines start with results.

Row | EC50 [1] [µM] | EC50 [2] [µM] | Serum samples in which TSab-stimulated cAMP was significantly inhibited (p<0.05) / samples tested (FRTL5 cells) | Inhibition of TSab-stimulated cAMP generation (in words) (FRTL5 cells; listed as 71-85) | SMILES | Inhibition of TSab-stimulated cAMP generation (in words) (FRTL5 cells) | Inhibition of TSH binding to human thyroid membrane (in words) ([1]; human thyroid membrane RRA)
4 | > 1000 | > 1000 |  |  | CC[C@H](C)[C@H](NC(=O)[C@H](Cc1ccccc1)NC(=O)[C@H](CC(=O)O)NC(=O)[C@H](CCCNC(=N)N)NC(=O)[C@H](Cc1ccc(O)cc1)NC(=O)[C@@H](NC(=O)[C@H](CS)NC(=O)[C@@H](N)C(C)C)[C@@H](C)O)C(=O)N[C@@H](Cc1ccc(O)cc1)C(=O)N[C@@H](CCCNC(=N)N)C(=O)N[C@H](C(=O)N[C@H](C(=O)N[C@@H](CCC(=O)O)C(=O)N[C@H](C(=O)N1CCC[C@H]1C(N)=O)[C@@H](C)CC)C(C)C)[C@@H](C)O [β51-65] (H-VCTYRDFIYRTVEIP-NH2) |  | 
5 |  |  | 1/12 |  | CC[C@H](C)[C@H](NC(=O)[C@H](C)NC(=O)[C@H](CCC(=O)O)NC(=O)[C@H](Cc1c[nH]cn1)NC(=O)[C@@H](NC(=O)[C@H](CS)NC(=O)[C@H](CC(=O)O)NC(=O)[C@H](CO)NC(=O)[C@H](Cc1ccc(O)cc1)NC(=O)[C@@H](N)CC(=O)O)[C@@H](C)CC)C(=O)N[C@@H](CCCCN)C(=O)N[C@H](C(=O)N[C@@H](CC(N)=O)C(=O)N[C@@H](Cc1ccc(O)cc1)C(=O)N[C@@H](CS)C(N)=O)[C@@H](C)O [β91-105] (H-DYSDCIHEAIKTNYC-NH2; N-terminus assumed) | did not inhibit TSab activity | 
6 |  |  | 1/5 | effective only at the highest dose | CC(C)C[C@H](NC(=O)[C@H](C)NC(=O)[C@@H](NC(=O)[C@@H]1CCCN1C(=O)[C@H](Cc1ccc(O)cc1)NC(=O)[C@H](CO)NC(=O)[C@H](Cc1ccccc1)NC(=O)[C@H](Cc1ccc(O)cc1)NC(=O)[C@@H]1CCCN1C(=O)[C@H](C)NC(=O)[C@@H](N)C(C)C)C(C)C)C(=O)N[C@@H](CO)C(=O)N[C@@H](CS)C(=O)N[C@@H](CCCCN)C(=O)N[C@@H](CS)C(N)=O [β71-85] (H-VAPYFSYPVALSCKC-NH2; N-terminus assumed) | significant inhibition only at the highest concentration | inhibit binding of TSH to human thyroid membrane
